According to BindingDB's records for doi:10.1021/acs.jmedchem.9b00607 (National Institute On Drug Abuse-Intramural Research Program, 2019):

Molecular target: D(3) dopamine receptor (Homo sapiens, UniProt P35462)
Assay: Agonist activity at human D3 receptor expressed in CHO cells assessed as stimulation of […] mitogenesis

Chain of D(3) dopamine receptor (P35462 as listed by the source): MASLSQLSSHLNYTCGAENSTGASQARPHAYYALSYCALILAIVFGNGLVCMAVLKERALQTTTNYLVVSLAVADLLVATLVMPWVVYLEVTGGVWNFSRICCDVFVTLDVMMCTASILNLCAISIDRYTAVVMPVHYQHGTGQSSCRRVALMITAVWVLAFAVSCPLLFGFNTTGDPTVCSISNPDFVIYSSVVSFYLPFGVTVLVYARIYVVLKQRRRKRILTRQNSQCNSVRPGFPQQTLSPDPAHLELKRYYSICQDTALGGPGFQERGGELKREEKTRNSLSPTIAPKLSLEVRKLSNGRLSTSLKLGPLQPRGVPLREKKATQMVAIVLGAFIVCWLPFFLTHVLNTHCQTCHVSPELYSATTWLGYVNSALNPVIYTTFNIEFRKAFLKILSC

EC50	Compound
> 3.2 µM	CCc1cc(Cl)c(OC)c(N2CCN(C[C@H](O)CCNC(=O)c3cc4ccccc4[nH]3)CC2)c1
> 6.8 µM	CCc1cc(Cl)c(OC)c(N2CCN(C[C@@H](O)CCNC(=O)c3cc4ccccc4[nH]3)CC2)c1
